Here are results for 15 molecules from ChEMBL document CHEMBL5505991, “Novel sulfonamide-indolinone hybrids targeting mitochondrial respiration of breast cancer cells” (Eur J Med Chem, 2024).

Active and inactive are the calls of the source. No cut-off for these calls is given here.

Data set [1] relates to T47D. Put plainly: Growth inhibition of human T47D cells incubated for 72 hrs by SRB assay. It counts as functional. For orientation: The SRB assay estimates cell density from bound dye.
Data set [2] relates to MCF7. Put plainly: Growth inhibition of human MCF7 cells incubated for 72 hrs by SRB assay. It counts as functional.
Data set [3] relates to T47D. The experiment in a line: Antiproliferative activity against human T47D cells assessed as cell growth at 10 uM incubated for 72 hrs by SRB assay relative to control. It counts as functional. Conditions: read-out: Activity.
The test system of data set [4] is MCF7. Put plainly: Antiproliferative activity against human MCF7 cells assessed as cell growth at 10 uM incubated for 72 hrs by SRB assay relative to control. Conditions: read-out: Activity. The class given is functional.
In data set [5] the target is T1, Aurora kinase B (Homo sapiens, UniProt Q96GD4). The experiment in a line: Inhibition of Aurora B (unknown origin) at 100 nM by Z-LYTE assay relative to control.
The subject of data set [6] is MDA-MB-468. Put plainly: Growth inhibition of human MDA-MB-468 cells incubated for 72 hrs by SRB assay. The class given is functional.
In data set [7] the test system is MDA-MB-468. The experiment in a line: Antiproliferative activity against human MDA-MB-468 cells assessed as cell growth at 10 uM incubated for 72 hrs by SRB assay relative to control. It counts as functional. Conditions: read-out: Activity.
Data set [8] concerns the target T1, Aurora kinase B. Put plainly: Binding affinity to Aurora B (unknown origin) assessed as inhibition constant.
Data set [9] concerns MCF7. Put plainly: Inhibition of mitochondrial respiration in human MCF7 cells assessed as reduction in oxygen consumption rate at 20 uM incubated for 15 mins in presence of complex IV. The class given is functional, cell-based.
Data set [10] relates to H9c2. The experiment in a line: Cytotoxicity against rat H9c2 cells at upto 100 uM measured after 72 hrs by SRB assay. It counts as toxicity, cell-based. The note with it: h9c2, 72 h.
Data set [11] concerns MCF7. The experiment in a line: Inhibition of mitochondrial respiration in human MCF7 cells assessed as reduction in oxygen consumption rate at 20 uM incubated for 15 mins in presence of complex I. The class given is functional, cell-based.
Data set [12] deals with MCF7. Put plainly: Inhibition of mitochondrial respiration in human MCF7 cells assessed as reduction in oxygen consumption rate at 20 uM incubated for 15 mins. It counts as functional, cell-based.
In data set [13] the test system is MCF7. The experiment in a line: Inhibition of mitochondrial induced ROS production in human MCF7 cells assessed as reduction in H2O2 production rate at 20 uM incubated for 15 mins in presence of complex II by Amplex ultra red and horseradish peroxidase based fluorescence assay. The class given is functional, cell-based.
The test system of data set [14] is BNL. The experiment in a line: Cytotoxicity against mouse BNL cells at upto 100 uM measured after 72 hrs by SRB assay. It counts as toxicity, cell-based.
Data set [15] deals with MCF7. Put plainly: Inhibition of mitochondrial respiration in human MCF7 cells assessed as reduction in oxygen consumption rate at 20 uM incubated for 15 mins in presence of complex II. The class given is functional, cell-based.
In data set [16] the test system is MCF7. Put plainly: Induction of cell cycle arrest in human MCF7 cells assessed as accumulation of cells at G0/G1 phase at 5 to 7 uM measured after 24 hrs by PI staining based flow cytometry analysis. It counts as functional. The note with it: dose 5-7 µM. In general terms: In flow cytometry, cells or beads pass a laser one at a time.
Data set [17] deals with T1, Aurora kinase B. The experiment in a line: Inhibition of Aurora B (unknown origin).
The target of data set [18] is T1, Aurora kinase B. The experiment in a line: Inhibition of Aurora B (unknown origin) at 100 nM relative to control.

T1 sequence (Q96GD4 whole entry): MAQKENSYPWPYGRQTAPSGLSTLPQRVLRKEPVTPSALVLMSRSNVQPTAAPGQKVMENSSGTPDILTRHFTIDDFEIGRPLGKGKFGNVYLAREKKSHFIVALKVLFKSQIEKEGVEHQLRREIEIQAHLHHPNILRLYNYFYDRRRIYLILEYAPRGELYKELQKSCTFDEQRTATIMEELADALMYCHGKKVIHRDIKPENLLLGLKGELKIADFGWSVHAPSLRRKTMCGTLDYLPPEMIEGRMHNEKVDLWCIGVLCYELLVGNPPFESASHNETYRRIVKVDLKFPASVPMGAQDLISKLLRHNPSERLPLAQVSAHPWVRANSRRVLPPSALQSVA

Consider `O=C1Nc2cc(-c3ccc(NS(=O)(=O)c4ccc5ccccc5c4)cc3)ccc2/C1=C/c1ccc[nH]1`, for which the figures for the concentration for 50% growth inhibition (GI50) in data set [1], in data set [2] and in [6] were 47.1 nM, 33.6 nM and 25.4 nM, respectively. In addition, the growth at 10 µM was -16.7% in [3], -51.9% in data set [4] and -80.8% in [7]. Besides, the inhibition (commonly how much of the control response was suppressed) in [5] came to 20%.
Turning to `Cc1ccc(S(=O)(=O)Nc2ccc(-c3ccc4c(c3)NC(=O)/C4=C\c3ccc[nH]3)cc2)cc1`, the values for the growth at 10 µM in data set [3], in data set [4] and in [7] were 18.8%, 3.35% and -25.8%, respectively. Besides, in data set [5], the inhibition amounted to 23%.
Regarding `O=C1Nc2cc(-c3ccc(NS(=O)(=O)c4ccc([N+](=O)[O-])cc4)cc3)ccc2/C1=C/c1ccc[nH]1`, the GI50 (in general, the concentration giving 50% growth inhibition) turned out to be 4770 nM in [1], 1730 nM in data set [2] and 778 nM in [6]. Moreover, the growth at 10 µM in data set [3] is 15.9%; in data set [4], -23.6%; in data set [7] it was -29.6%. The same molecule gave an inhibition in [5] of 49%.
Consider `COc1ccc(S(=O)(=O)Nc2ccc(-c3ccc4c(c3)NC(=O)/C4=C\c3ccc[nH]3)cc2)cc1OC`, for which the GI50 was found to be 28.5 nM in data set [1], 47.7 nM in [2] and 30.9 nM in data set [6]. In addition, the results for the growth at 10 µM in data set [3], in data set [4] and in [7] were -21%, -39% and -56.2%, respectively. Moreover, the inhibition in data set [5] stood at 33%.
As for `O=C1Nc2cc(-c3ccc(NS(=O)(=O)c4cccc(Cl)c4)cc3)ccc2/C1=C/c1ccc[nH]1`, the growth at 10 µM in data set [3] was 12.1%; in [4] it was -6.08%; in data set [7], -29.3%. Further, in data set [5], the inhibition is 43%.
On to `Cc1[nH]c(/C=C2\C(=O)Nc3cc(-c4ccc(NS(=O)(=O)c5ccc(F)c(Cl)c5)cc4)ccc32)c(C)c1NS(C)(=O)=O`, for which the figures for the growth at 10 µM in data set [3], in data set [4] and in data set [7] were 17.9%, 4.18% and 8.19%, respectively. For the same molecule, in data set [5], the inhibition is 53%.
The matching figures for `CC(=O)Nc1ccc(S(=O)(=O)Nc2ccc(-c3ccc4c(c3)NC(=O)/C4=C\c3ccc[nH]3)cc2)cc1`: 20.7%, 14.3%, -7.1% and 46%.
Regarding `O=C1Nc2cc(-c3ccc(O)cc3)ccc2/C1=C/c1ccc[nH]1`, in data set [8], the Ki (usually the equilibrium dissociation constant of an inhibitor or competing ligand from its target) was determined as 19.9 nM.
`CCN(CC)CCNC(=O)c1c(C)[nH]c(/C=C2\C(=O)Nc3cc(-c4ccc(NS(=O)(=O)c5ccc(F)c(Cl)c5)cc4)ccc32)c1C`: the inhibition entry in [9] was “inactive”. Further, the Activity result in data set [10] and in [14] was “Non-Toxic” in each case. Further, the inhibition entry in data set [11], in data set [12], in data set [13] and in data set [15] was “Active” throughout. Besides, the growth at 10 µM in data set [3] was -49.1%; in data set [4], -85.2%; in data set [7] it was -90.5%. In data set [5], this molecule showed an inhibition of 90%. Besides, the result in [16] was Active.
Consider `O=C(Nc1ccc(-c2ccc3c(c2)NC(=O)/C3=C\c2ccc[nH]2)cc1)NC1CC1`, for which the IC50 (usually the concentration at which inhibition is half-maximal) in data set [17] stood at 10.5 nM.
`O=C1Nc2cc(-c3ccc(NS(=O)(=O)c4ccccc4)cc3)ccc2/C1=C/c1ccc[nH]1` showed an inhibition in [18] of 66%.
Turning to `O=C1Nc2cc(-c3ccc(NS(=O)(=O)c4ccc(-c5ccccc5)cc4)cc3)ccc2/C1=C/c1ccc[nH]1`, the concentration for 50% growth inhibition (GI50) is 136 nM in data set [1], 74.6 nM in data set [2] and 40.2 nM in data set [6]. Besides, the growth at 10 µM was 3.17% in [3], -25.2% in data set [4] and -52.5% in [7]. In data set [5], this molecule gave an inhibition of 20%.
In the case of `O=C1Nc2cc(-c3ccc(NS(=O)(=O)c4ccc(C(F)(F)F)cc4)cc3)ccc2/C1=C/c1ccc[nH]1`, the concentration for 50% growth inhibition (GI50) was 230 nM in data set [1], 81.8 nM in [2] and 31.1 nM in [6]. Moreover, the growth at 10 µM in data set [3] is 18.1%; in [4], 0.78%; in data set [7], -26.2%. The molecule further came in with an inhibition in data set [5] of 18%.
`O=C1Nc2cc(-c3ccc(NS(=O)(=O)c4cccc(Br)c4)cc3)ccc2/C1=C/c1ccc[nH]1`: the values for the concentration for 50% growth inhibition (GI50) in [1], in data set [2] and in data set [6] were 41.7 nM, 30.2 nM and 28.6 nM, respectively. Further, the growth at 10 µM in [3] is 15.6%; in data set [4], -18.4%; in data set [7] it was -44%. This molecule also registered an inhibition in data set [5] of 38%.
`O=C1Nc2cc(-c3ccc(NS(=O)(=O)c4ccc(Br)cc4)cc3)ccc2/C1=C/c1ccc[nH]1`: the GI50 in data set [1] worked out at 61.3 nM; in data set [2], 31.6 nM; in [6], 25.4 nM. In addition, the growth at 10 µM was 9.33% in data set [3], -77.4% in [4] and -66.9% in data set [7]. This molecule registered an inhibition in [5] of 32%.
